# Reference: the supplement of paper PMC10307832
# Legend:
# Assay in all cases: relative viability (nuclei count vs DMSO), 5 days (fraction); higher = more cells survive
# PAC-1 = compound: C=CCc1cccc(/C=N/NC(=O)CN2CCN(Cc3ccccc3)CC2)c1O [PAC-1]
# How it was run: (§1)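 Lung cancer cell lines in 1536-well plates were kept overnight at 37 °C, then pinned with five library-drug doses (not always all listed) spaced by √10 on vehicle-anchored plates. After 5 days without medium change, cells were fixed, permeabilised and Hoechst-stained in one step, imaged at 4×, and nuclei were counted with MetaXpress. Viability is treated-well nuclei divided by vehicle-well nuclei, taken as the median over plates. Plates passed only with control CV below 25% and at least one doubling.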
# Ibrutinib = compound: C=CC(=O)N1CCC[C@@H](n2nc(-c3ccc(Oc4ccccc4)cc3)c3c(N)ncnc32)C1 [Ibrutinib]
# How it was run: as §1
# BMX-IN-1 = compound: C=CC(=O)Nc1cc(-n2c(=O)ccc3cnc4ccc(-c5ccc(NS(C)(=O)=O)cc5)cc4c32)ccc1C [BMX-IN-1]
# How it was run: as §1
# Ibrutinib + Trametinib = compound: C=CC(=O)N1CCC[C@@H](n2nc(-c3ccc(Oc4ccccc4)cc3)c3c(N)ncnc32)C1 [Ibrutinib] + CC(=O)Nc1cccc(-n2c(=O)n(C3CC3)c(=O)c3c(Nc4ccc(I)cc4F)n(C)c(=O)c(C)c32)c1 [Trametinib] (partner 0.02 µM)
# How it was run: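 Each reported value is a median over duplicate plates. It expresses relative viability: treated-well nuclei count divided by vehicle-well nuclei count. Lung cancer cell lines in 1536-well plates were dosed by pin tool a day after seeding, alone with one drug or with a fixed anchor-drug dose plus five library-drug doses (not always all listed) in √10 steps, and nuclei were counted after 5 days.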
Cell Line,relative viability (PAC-1; 0.02 µM),relative viability (PAC-1; 0.06325 µM),relative viability (PAC-1; 0.2 µM),relative viability (PAC-1; 2 µM),relative viability (Ibrutinib; 0.005 µM),relative viability (Ibrutinib; 0.01581 µM),relative viability (Ibrutinib; 0.05 µM),relative viability (Ibrutinib; 0.1581 µM),relative viability (Ibrutinib; 0.5 µM),relative viability (BMX-IN-1; 0.02 µM),relative viability (BMX-IN-1; 0.2 µM),relative viability (BMX-IN-1; 0.6325 µM),relative viability (BMX-IN-1; 2 µM),relative viability (Ibrutinib + Trametinib; first compound 0.005 µM),relative viability (Ibrutinib + Trametinib; first compound 0.01581 µM),relative viability (Ibrutinib + Trametinib; first compound 0.05 µM),relative viability (Ibrutinib + Trametinib; first compound 0.1581 µM),relative viability (Ibrutinib + Trametinib; first compound 0.5 µM)
NCI-H522,1.08,1.1,0.872,1.05,0.796,1.09,0.85,0.752,0.76,0.882,0.906,1.04,0.938,0.757,0.714,0.661,0.71,0.57
NCI-H2009,0.978,1.03,0.94,0.99,1.14,0.971,0.978,0.962,1.09,1.08,1.07,1.09,1.02,0.208,0.252,0.253,0.306,0.234
NCI-H2347,1.01,1.02,0.979,1.05,1.01,1.06,1.02,0.812,1.04,1.04,0.967,1.14,1.09,0.283,0.228,0.37,0.245,0.239
NCI-H460,0.979,0.966,0.934,1.07,1.07,0.922,0.979,0.917,1.02,1.24,1.09,1.04,1.07,0.133,0.0919,0.195,0.13,0.152
LC-2-ad,1.01,1.04,1.01,0.974,0.996,0.973,0.941,0.905,0.995,1.1,1.05,1.08,1.02,0.914,0.907,,0.929,0.863
NCI-H596,1,0.937,1.07,1.05,0.74,0.965,0.939,0.837,0.858,1.12,0.951,1.02,0.96,0.821,0.688,0.808,0.826,0.874
A-427,1.01,1.04,0.976,0.97,0.9,0.969,0.953,0.951,0.98,1.08,1.12,1.17,1.03,0.654,0.777,0.782,,0.694
HCC-44,0.99,1.05,0.997,0.981,1.04,0.995,0.994,1.02,1.04,1.03,1.06,1.13,0.998,1.04,1.04,0.992,1.19,1.06
HCC-827,1.08,1.04,1.07,1.03,,1.01,1.08,1.02,0.868,1.05,1.06,1.09,1.04,0.49,0.489,0.416,0.509,0.196
NCI-H1915,0.955,0.981,0.934,1.07,0.96,0.971,1.01,0.978,1.05,1.08,1.06,1.07,1.08,0.324,0.295,0.28,0.292,0.283
NCI-H322M,0.833,0.897,1.05,0.884,0.801,0.811,0.843,0.666,0.671,1.07,0.905,0.967,0.943,0.466,0.457,0.532,0.519,0.508
EKVX,1.02,0.977,0.934,0.98,0.955,0.95,0.901,0.849,0.584,1.02,0.944,1.02,1.01,0.322,0.343,0.392,,0.215
EMC-BAC-2,0.998,1.02,1.09,0.97,0.897,1.01,0.739,,0.96,1,1.13,1.07,0.95,0.836,0.895,,,1.03
HCC-15,1.09,1.08,0.969,1.08,1.12,1.01,1.04,0.857,1,1.11,1.1,1.11,1.13,0.387,0.367,0.419,0.432,0.365
LXF-289,0.974,1.01,0.997,1.01,1.06,1.01,1.04,0.972,0.973,1.06,1.05,1.01,1.02,0.703,0.649,0.689,0.694,0.722
NCI-H358,0.921,0.848,0.905,0.789,0.637,0.713,0.611,0.786,0.47,1.12,0.962,1.04,0.914,0.102,0.194,,0.138,0.116
NCI-H1395,1.02,0.928,0.872,0.911,0.763,1.04,0.855,0.713,0.957,1.01,0.951,0.97,0.892,0.912,1.13,1.16,1.04,1.01
NCI-H838,0.96,0.989,0.9,0.983,0.923,0.893,0.986,0.938,0.948,1.25,0.957,1.02,0.989,0.342,0.484,0.528,0.523,0.499
